From patent publication US10745370B2, “Farnesyl transferase inhibitors and uses thereof” (MACKAY MEMORIAL HOSPITAL, priority 2016, dated 2020)
“Also recorded” adds a separate entry of the source.

What was measured:
M2 macrophages = assay: Cell marker expression on M2 macrophages, flow cytometry; assay type: cell-based, human; settings: for CD14: M2 population after treatment: Table 5; for CD80: change in M2 population: Table 6; for CD206: change in M2: Table 7; for CD80 expression on M2 macrophages: control 47.64%; for CD14 expression on M2 macrophages: control 55.66%; for CD206 expression on M2 macrophages: control 74.49%
Protocol: M1 differentiation of freshly isolated CD14^+ cells was induced by the addition of lipopolysaccharide (LPS), while M2 differentiation of freshly isolated CD14^+ cells was induced by the addition of IL-4. Then, the present compounds (e.g., Mib-5, 6, 7, 8, 9, or 10) were added at the indicated dosages. 6 days later, the population of the differentiated macrophages were then determined by cell viability analysis.
(§1) The expression of various types of cell markers, such as CD14, CD206, and CD80 expressed on the surface of macrophages, and CD1a, CD14, CD83, and HLA-DR expressed on the dendritic cells, were respectively detected by fluorescein isothiocyanate (FITC) and phycoerythrin (PE)-conjugated monoclonal antibodies in FACS caliber flowcytometer. Monoclonal antibodies used in this examples included anti-CD14 (IgG-FITC), anti-CD206 (IgG-FITC), anti-CD80-PE, anti-CD1a-PE, anti-CD83-PE and anti-human leukocyte antigen (HLA)-DR-PE. Results were analyzed by CellQuest software.

macrophages [1] = assay: Trypan blue exclusion test on macrophages; assay type: cell-based; settings: trypan blue analysis, FIG. 2
Protocol: (§2) Mononuclear cells (MNCs) were separated from the peripheral blood of healthy donors obtained with written consent by use of Ficoll-Hypaque density centrifugation, followed by positive selection with magnetic anti-CD14 microbeads.
(§3) The isolated CD14^+ cells were cultivated in Minimum Essential Medium (MEM medium) supplemented with 10% fetal bovine serum (FBS), 100 ng/ml granulocyte-macrophage colony-stimulating factor (GM-CSF, Gentaur), and 50 ng/ml interleukin-4 (IL-4, R&D), and kept in an environment of 37° C. with 5% CO2/95% air.
(§4) To evaluate the effects of the present compound on dendritic cells, the CD14^+ cells were respectively treated with 10 μM of test compound (i.e., Mib-5, Mib-6, Mib-7, Mib-8, Mib-9, and Mib-10) on day 1. Then, on day 3, the cultured medium in each well was replenished by adding half the volume of the cultured medium containing the same treatment as indicated above. Then, on day 6, a cytokine cocktail containing IL-1, IL-6, and tumor necrosis factor-α (TNF-α) was added to induce maturation. On day 7, the differentiated dendritic cells were collected and subjected to further assays, including viability assay, morphology observation, and cell marker staining.
(§5) As to the effects of the present compound on macrophages, the CD14^+ cells were cultivated and treated as indicated above except the addition of cytokine cocktail on day 6. The macrophages were collected on day 6 and subjected to further assays, including viability assay, trypan blue exclusion test, morphology observation, cell marker staining, and phagocytotic activity analysis.
The dye exclusion test is used to determine the number of viable cells present in a cell suspension. […] In this test, the cells were first treated with a test compound (i.e., Mib-5, 6, 7, 8, 9 or 10) for a certain period of time (e.g., 72 hours), then the cells were harvested and re-suspended in suitable buffer solution. The cell suspension was then mixed with trypan blue dye and then visually examined to determine whether cells had taken up or excluded the dye. A viable cell will have a clear cytoplasm, whereas a nonviable cell will have a blue cytoplasm. The concentration required to reduce viability by 50% (IC50) after 72 hours was extrapolated from the dose-response curves by different concentrations of the test compound using a second-order polynomial regression model and analyzing with SigmaPlot Software (Systat Software Inc., San Jose, Calif.).

macrophages [2] = assay: Phagocytosis assay with fluorescent latex beads; assay type: cell-based, human; settings: M1 and/or M2 populations, FIG. 6
Protocol: as §5
The phagocytic activity of macrophages was measured by using flow cytometric analysis. The green fluorescent latex beads (carboxylate-modified beads with diameter 2 μm) were suspended in PBS solution and added into macrophage culture for 2 hours with vortexa at 37° C. The macrophages were subjected to flow cytometry for measurement of fluorescent intensity

dendritic cells = assay: Cell marker expression on dendritic cells, flow cytometry; assay type: cell-based, human; settings: 10 μM; for expression of CD1a, differentiation marker of dendritic cells: FIG. 9; for expression of CD83, maturation marker of dendritic cells: FIG. 10
Protocol: as §2, §3, §4, §1
In this example, the effects of the present compounds on dendritic cells were investigated. Briefly, the dendritic cells were respectively treated with 10 μM of Mib-5, Mib-6, Mib-7, Mib-8, or Mib-10. Seven days later, the cells were harvested and subjected to analysis of morphology observation, cell viability, and/or cell marker expression.

[3] = tested on: skin allograft, C57BL/6 donors, BALB/c recipients; assay: Skin allo-transplantation rejection model; assay type: in vivo, mice; settings: 10 mg/kg/day intraperitoneally, 20 days, FIG. 13
Protocol: Six- to eight-week-old male C57BL/6(H-2^b) and BALB/c(H-2^d) mice were purchased from the Animal Resource Center of the National Science Council of Taiwan (Taipei, Taiwan). All animal experiments were approved by the animal ethics committee of Mackay Memorial Hospital. Surgery for skin transplantation was performed with standardized procedures. In brief, a 2×1 cm full-thickness skin graft was harvested from the C57BL/6 donor mouse. A graft bed on the BALB/c recipient was prepared. The skin graft was sutured to the recipient's graft bed. Rejection was defined as necrosis of more than 80% of the epidermal surface of the graft. The tested agents included vehicle (as control), Mib-5 (10 mg/kg/day), Mib-7 (10 mg/kg/day) and rapamycin (1.5 mg/kg/day as positive control). Treatments were administered intraperitoneally daily for consecutive 20 days until rejection was observed.
The skin allo-transplantation model, by using C57BL/6(H-2^b) mice as donors and BALB/c(H-2^d) mice as recipients, was used to examine the effect of Mib-5 and Mib-7 on allograft survival, in which rapamycin served as a positive control.

Structure (SMILES)	CD14: M2 population after treatment (M2 macrophages)	CD80: change in M2 population (M2 macrophages)	CD206: change in M2 (M2 macrophages)	CD80 expression on M2 macrophages (M2 macrophages) [%]	CD14 expression on M2 macrophages (M2 macrophages) [%]	CD206 expression on M2 macrophages (M2 macrophages) [%]	cell viability / cytotoxicity toward macrophages (macrophages [1])	phagocytic activity compared with control (macrophages [2])	expression of CD1a, differentiation marker of dendritic cells (dendritic cells)	expression of CD83, maturation marker of dendritic cells (dendritic cells)	mean survival of skin allograft in recipient mice [3]
COC1=CC(=O)[C@@]2(c3cc(=O)c4ccc(OC)cc4o3)[C@H](C[C@]3(C)[C@@H](C(=O)O)CC=C4[C@H]3CCCC4(C)C)C(C)=CC[C@H]2C1=O [Mib-5]	significant decrease	increase	increase	53.03	80.33	78.77	did not adversely affect cell viability; also recorded: no significant cytotoxicity	reduced	inhibited	inhibited	significantly prolonged
COC1=CC(=O)[C@@]2(c3cc(=O)c4c(O)cc(O)cc4o3)[C@H](C[C@]3(C)[C@@H](C(=O)O)CC=C4[C@H]3CCCC4(C)C)C(C)=CC[C@H]2C1=O [Mib-7]	significant decrease	increase	increase	49.58	89.76	88.88	did not adversely affect cell viability; also recorded: no significant cytotoxicity	reduced	inhibited	inhibited	significantly prolonged
